Assay results reported in ChEMBL document CHEMBL3046811, “Syntheses and in vitro biological screening of 1-aryl-10H-[1,2,4]triazolo[3,4:3,4][1,2,4]triazino[5,6-b]indoles” (Med Chem Res, 2013).

Tests used:
[1] = Cytotoxicity against Homo sapiens (human) MT4 cells assessed as inhibition of cell vaibility after 96 hr by MTT assay; type: cell-based
[2] = Cytotoxicity against Mesocricetus auratus (Syrian golden hamster) BHK21cells assessed as inhibition of cell viability after 48 to 120 hr by MTT assay; type: cell-based; details: BHK-21 cells
Vaccinia virus = assay: Antiviral activity against Vaccinia virus infected African green monkey Vero 76 cells assessed as reduction in plaque number treated after viral infection measured after 3 days by plaque reduction assay; type: functional, organism-based; details: Orthopoxvirus vaccinia, 72 h
[3] = tested on: Human immunodeficiency virus 1; assay: Antiviral activity against Human immunodeficiency virus 1 infected human MT4 cells assessed as protection against virus-induced cytopathogenicity treated before viral infection measured after 4 days by MTT assay; type: functional, organism-based; details: Human immunodeficiency virus 1, MT4, 96 h
Human alphaherpesvirus 1 = assay: Antiviral activity against Human herpesvirus 1 infected African green monkey Vero 76 cells assessed as reduction in plaque number treated after viral infection measured after 3 days by plaque reduction assay; type: functional, organism-based; details: Human alphaherpesvirus 1, Vero, 72 h
[4] = tested on: Vesicular stomatitis virus; assay: Antiviral activity against Vesicular stomatitis virus infected African green monkey Vero 76 cells assessed as reduction in plaque number treated after viral infection measured after 2 days by plaque reduction assay; type: functional, organism-based; details: 48 h
[5] = tested on: Respiratory syncytial virus; assay: Antiviral activity against Respiratory syncytial virus infected African green monkey Vero 76 cells assessed as reduction in plaque number treated after viral infection measured after 5 days by plaque reduction assay; type: functional, organism-based; details: human respiratory syncytial virus, 120 h
[6] = Cytotoxicity against Chlorocebus aethiops (African green monkey) Vero 76 cells assessed as inhibition of cell viability after 48 to 120 hr by MTT assay; type: cell-based; details: chlorocebus sabaeus
[7] = tested on: Mammalian orthoreovirus 1; assay: Antiviral activity against Mammalian orthoreovirus 1 infected Syrian hamster BHK-21 cells assessed as protection against virus-induced cytopathogenicity treated 1 hr after viral infection measured after 3-4 days by MTT method; type: functional, organism-based; details: Mammalian orthoreovirus 1, BHK-21
Yellow fever virus = assay: Antiviral activity against Yellow fever virus infected Syrian hamster BHK-21 cells assessed as protection against virus-induced cytopathogenicity treated 1 hr after viral infection measured after 3-4 days by MTT method; type: functional, organism-based
Coxsackievirus B2 = assay: Antiviral activity against Human coxsackievirus B2 infected in African green monkey Vero 76 cells assessed as reduction in plaque number treated after viral infection measured after 3 days by plaque reduction assay; type: functional, organism-based; details: Enterovirus B, 72 h
Poliovirus 1 = assay: Antiviral activity against Human poliovirus 1 strain Sabin infected African green monkey Vero 76 cells assessed as reduction in plaque number treated after viral infection measured after 2 days by plaque reduction assay; type: functional, organism-based; details: Enterovirus C, 48 h
[8] = Cytotoxicity against Bos taurus (bovine) MDBK cells assessed as inhibition of cell viability after 48 to 120 hr by MTT assay; type: cell-based; details: cattle
[9] = tested on: Bovine viral diarrhea virus 1; assay: Antiviral activity against Bovine viral diarrhea virus 1 infected bovine MDBK cells assessed as protection against virus-induced cytopathogenicity treated 1 hr after viral infection measured after 3-4 days by MTT method; type: functional, organism-based; details: Bovine viral diarrhea virus isolates and strains
[10] = Selectivity index, ratio of CC50 for bovine MDBK cells to EC50 for BVDV infected in bovine MDBK cells

Row | SMILES | CC50 at 96 h [1] | CC50 [2] | EC50 (Vaccinia virus) | EC50 [3] | EC50 (Human alphaherpesvirus 1) | EC50 [4] | EC50 [5] | CC50 [6] | EC50 [7] | EC50 (Yellow fever virus) | EC50 (Coxsackievirus B2) | EC50 (Poliovirus 1) | CC50 [8] | EC50 [9] | Ratio CC50/EC50 [10]
1 | COc1ccc(-c2nnc3nnc4c5ccccc5[nH]c4n23)cc1OC | > 100 µM | > 100 µM | > 100 µM | > 100 µM | > 100 µM | > 100 µM | > 100 µM | > 100 µM | 55 µM | > 100 µM | > 100 µM | > 100 µM | > 100 µM | > 100 µM | –
2 | COc1ccc(-c2nnc3nnc4c5ccccc5[nH]c4n23)cc1 | > 100 µM | > 100 µM | > 100 µM | > 100 µM | > 100 µM | > 100 µM | > 100 µM | > 100 µM | > 100 µM | > 100 µM | > 100 µM | > 100 µM | > 100 µM | > 100 µM | –
3 | CSc1ccc(-c2nnc3nnc4c5ccccc5[nH]c4n23)cc1 | > 100 µM | > 100 µM | > 90 µM | > 100 µM | > 90 µM | > 90 µM | > 90 µM | 90 µM | 45 µM | > 100 µM | > 90 µM | > 90 µM | > 100 µM | > 100 µM | –
4 | Brc1cccc(-c2nnc3nnc4c5ccccc5[nH]c4n23)c1 | > 100 µM | > 100 µM | > 100 µM | > 100 µM | > 100 µM | > 100 µM | > 100 µM | > 100 µM | > 100 µM | > 100 µM | > 100 µM | > 100 µM | > 100 µM | > 100 µM | –
5 | Fc1ccc(-c2nnc3nnc4c5ccccc5[nH]c4n23)cc1 | > 100 µM | > 100 µM | > 100 µM | > 100 µM | > 100 µM | > 100 µM | > 100 µM | > 100 µM | > 100 µM | > 100 µM | > 100 µM | > 100 µM | > 100 µM | > 100 µM | –
6 | Clc1ccccc1-c1nnc2nnc3c4ccccc4[nH]c3n12 | > 100 µM | > 100 µM | > 100 µM | > 100 µM | > 100 µM | > 100 µM | > 100 µM | > 100 µM | > 100 µM | > 100 µM | > 100 µM | > 100 µM | > 100 µM | > 100 µM | –
7 | Clc1ccc(-c2nnc3nnc4c5ccccc5[nH]c4n23)cc1 | > 100 µM | > 100 µM | > 100 µM | > 100 µM | > 100 µM | > 100 µM | > 100 µM | > 100 µM | > 100 µM | > 100 µM | > 100 µM | > 100 µM | > 100 µM | > 100 µM | –
8 | O=[N+]([O-])c1cccc(-c2nnc3nnc4c5ccccc5[nH]c4n23)c1 | > 100 µM | > 100 µM | > 100 µM | > 100 µM | > 100 µM | > 100 µM | > 100 µM | > 100 µM | > 100 µM | > 100 µM | > 100 µM | > 100 µM | > 100 µM | > 100 µM | –
9 | O=[N+]([O-])c1ccc(-c2nnc3nnc4c5ccccc5[nH]c4n23)cc1 | > 100 µM | > 100 µM | > 100 µM | > 100 µM | > 100 µM | > 100 µM | > 100 µM | > 100 µM | > 100 µM | > 100 µM | > 100 µM | > 100 µM | > 100 µM | > 100 µM | –
10 | c1ccc(-c2nnc3nnc4c5ccccc5[nH]c4n23)cc1 | > 100 µM | > 100 µM | > 100 µM | > 100 µM | > 100 µM | > 100 µM | > 100 µM | > 100 µM | > 100 µM | > 100 µM | > 100 µM | > 100 µM | > 100 µM | > 100 µM | –
11 | O=[N+]([O-])c1ccccc1-c1nnc2nnc3c4ccccc4[nH]c3n12 | > 100 µM | > 100 µM | > 100 µM | > 100 µM | > 100 µM | > 100 µM | > 100 µM | > 100 µM | > 100 µM | > 100 µM | 100 µM | > 100 µM | > 100 µM | > 100 µM | –
12 | Clc1cccc(-c2nnc3nnc4c5ccccc5[nH]c4n23)c1 | 29 µM | 55 µM | > 60 µM | > 29 µM | > 60 µM | > 60 µM | > 60 µM | 60 µM | > 55 µM | > 55 µM | > 60 µM | > 60 µM | > 100 µM | 69 µM | >1.45
13 | COc1cc(-c2nnc3nnc4c5ccccc5[nH]c4n23)ccc1O | 58 µM | 45 µM | > 80 µM | > 58 µM | > 80 µM | > 80 µM | > 80 µM | 80 µM | 25 µM | > 45 µM | > 80 µM | > 80 µM | > 100 µM | 90 µM | >1.11
14 | c1ccc2c(-c3nnc4nnc5c6ccccc6[nH]c5n34)c3ccccc3cc2c1 | 56 µM | > 100 µM | – | > 56 µM | > 100 µM | – | > 100 µM | ≥ 100 µM | > 100 µM | – | > 100 µM | – | > 100 µM | 3 µM | >33.33
